In US8129434B2, “Benzylphenyl cyclohexane derivatives and methods of use” (Theracos, Inc., priority 2007, dated 2012):
Blank lines part the entries; values can stand above or below the molecule they belong to.

Key:
human SGLT2 = target: T1, human SGLT2 (Homo sapiens, UniProt P31639); assay: Methyl-α-D-[U-14C]glucopyranoside uptake assay, cells stably expressing human SGLT2; format: cell-based; conditions: HEK293.ETN cells stably expressing human SGLT2; 25% human serum; 1.5 h at 37° C.; sodium-dependent uptake
T1 construct: A full-length cDNA clone expressing human SGLT2 (GenScript Corporation) was subcloned into Hind III and Not I sites of pEAK15 expression vector
T1 sequence (P31639 1-672): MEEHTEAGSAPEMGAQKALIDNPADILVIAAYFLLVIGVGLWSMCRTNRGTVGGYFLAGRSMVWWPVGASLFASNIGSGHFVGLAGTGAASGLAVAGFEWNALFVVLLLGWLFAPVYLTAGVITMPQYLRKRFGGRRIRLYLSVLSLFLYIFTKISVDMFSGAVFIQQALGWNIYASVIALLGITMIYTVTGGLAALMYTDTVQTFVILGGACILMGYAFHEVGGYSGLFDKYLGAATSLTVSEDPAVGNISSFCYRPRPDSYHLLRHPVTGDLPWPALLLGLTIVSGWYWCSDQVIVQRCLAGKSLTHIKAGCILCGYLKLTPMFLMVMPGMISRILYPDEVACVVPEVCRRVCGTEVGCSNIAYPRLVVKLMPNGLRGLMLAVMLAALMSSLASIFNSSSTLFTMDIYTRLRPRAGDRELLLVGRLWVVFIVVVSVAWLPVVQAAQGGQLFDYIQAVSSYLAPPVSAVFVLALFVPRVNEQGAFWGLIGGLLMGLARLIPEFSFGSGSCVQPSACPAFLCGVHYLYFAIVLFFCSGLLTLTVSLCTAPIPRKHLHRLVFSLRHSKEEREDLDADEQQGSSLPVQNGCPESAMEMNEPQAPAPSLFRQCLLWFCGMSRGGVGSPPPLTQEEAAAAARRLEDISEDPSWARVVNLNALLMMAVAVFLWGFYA
From the text: A full-length cDNA clone expressing human SGLT2 (GenScript Corporation) was subcloned into Hind III and Not I sites of pEAK15 expression vector. Clones harboring the cDNA inserts were identified by restriction analysis.
Plasmid containing human SGLT2 was linearized with Nsi I and purified by agarose gel electrophoresis. Using Lipofectamine 2000 Transfection Reagent (Invitrogen Corporation), DNA was transfected into HEK293.ETN cells and cultured in Dulbecco's Modified Eagle Medium (DMEM) containing 10% fetal bovine serum (FBS) at 37° C. under 5% CO2 for 24 h. Transfectants were selected in the same growth medium supplemented with puromycin (Invitrogen Corporation) for two weeks. Puromycin-resistant cells were recovered and seeded on a fresh 96-well plate (single cell per well) and cultured in the presence of puromycin until cells became confluent. Puromycin-resistant clones were evaluated for SGLT2 activity in the methyl-α-D-[U-^14C]glucopyranoside uptake assay described below.
(§1) Cells expressing SGLT1 or SGLT2 were seeded on 96-well ScintiPlate scintillating plates (PerkinElmer, Inc.) in DMEM containing 10% FBS (1×10^5 cells per well in 100 μl medium) incubated at 37° C. under 5% CO2 for 48 h prior to the assay. Cells were washed twice with 150 μl of either sodium buffer (137 mM NaCl, 5.4 mM KCl, 2.8 mM CaCl2, 1.2 mM MgCl2, 10 mM tris(hydroxymethyl)aminomethane/N-2-hydroxyethylpiperazine-N′-ethanesulfonic acid [Tris/Hepes], pH 7.2) or sodium-free buffer (137 mM N-methyl-glucamine, 5.4 mM KCl, 2.8 mM CaCl2, 1.2 mM MgCl2, 10 mM Tris/Hepes, pH 7.2). Test compound in 50 μl each of sodium or sodium-free buffer containing 40 μCi/ml methyl-α-D-[U-^14C]glucopyranoside (Amersham Biosciences/GE Healthcare) and 25% human serum was added per well of a 96-well plate and incubated at 37° C. with shaking for either 2 h (SGLT1 assay) or 1.5 h (SGLT2 assay). Cells were washed twice with 150 μl of wash buffer (137 mM N-methylglucamine, 10 mM Tris/Hepes, pH 7.2) and methyl-α-D-[U-^14C]glucopyranoside uptake was quantitated using a TopCount scintillation counter (PerkinElmer, Inc.). Sodium-dependent glucopyranoside uptake was measured by subtracting the values obtained with sodium-free buffer from those obtained using sodium buffer (average of triplicate determinations).

human SGLT1 = target: T2, human SGLT1 (Homo sapiens, UniProt P13866); assay: Methyl-α-D-[U-14C]glucopyranoside uptake assay, human SGLT1 expressing cells; format: cell-based; conditions: COS-7 cells transfected with human SGLT1; 25% human serum; 2 h at 37° C.; sodium-dependent uptake
T2 construct: Full-length human SGLT1 cDNA on pDream2.1 expression vector was obtained from GenScript Corporation; host or cells: COS-7 (American Type Culture Collection)
T2 sequence (P13866 1-664): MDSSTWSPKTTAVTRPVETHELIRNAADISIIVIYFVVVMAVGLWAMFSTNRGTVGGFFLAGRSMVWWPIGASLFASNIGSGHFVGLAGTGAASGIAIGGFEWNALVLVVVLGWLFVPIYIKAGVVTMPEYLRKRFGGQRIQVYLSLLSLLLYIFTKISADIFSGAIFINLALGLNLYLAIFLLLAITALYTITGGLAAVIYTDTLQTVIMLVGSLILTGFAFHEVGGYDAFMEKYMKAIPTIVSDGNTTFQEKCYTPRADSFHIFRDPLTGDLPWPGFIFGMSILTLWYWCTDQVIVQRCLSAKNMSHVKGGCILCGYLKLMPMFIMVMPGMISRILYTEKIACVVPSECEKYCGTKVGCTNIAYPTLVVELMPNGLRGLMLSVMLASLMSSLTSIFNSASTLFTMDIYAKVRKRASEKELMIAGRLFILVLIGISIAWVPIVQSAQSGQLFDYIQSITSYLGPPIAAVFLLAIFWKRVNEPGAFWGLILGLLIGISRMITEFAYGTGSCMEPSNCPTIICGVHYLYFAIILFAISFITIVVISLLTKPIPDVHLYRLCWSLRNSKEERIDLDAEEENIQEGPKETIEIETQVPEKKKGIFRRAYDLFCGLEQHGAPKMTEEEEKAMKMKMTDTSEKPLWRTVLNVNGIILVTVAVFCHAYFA
Protocol: Full-length human SGLT1 cDNA on pDream2.1 expression vector was obtained from GenScript Corporation and propagated in Escherichia coli strain DH5α using Luria-Bertani (LB) medium containing ampicillin. Plasmid DNA was isolated using the QIAGEN Plasmid Midi Kit (QIAGEN Inc.). […] Transfected cells were stored in DMEM containing 10% dimethyl sulfoxide (DMSO) at −80 ° C.
as §1

SMILES: C=C1[C@H](CO)[C@@H](O)[C@H](O)[C@@H](O)[C@@H]1c1ccc(Cl)c(Cc2ccc(CC)cc2)c1 [Compound 35, (1R,2R,3S,4S,6R)-4-(4-chloro-3-(4-ethylbenzyl)phenyl)-6-(hydroxymethyl)-5-methylenecyclohexane-1,2,3-triol]
IC50 (human SGLT2): < 1 µM
IC50 (human SGLT1): 1 to 10 µM

SMILES: CCc1ccc(Cc2cc([C@H]3[C@H](O)[C@@H](O)[C@H](O)[C@@H](CO)C34CC4)ccc2Cl)cc1 [Compound 37, (4S,5S,6R,7R,8R)-4-(4-chloro-3-(4-ethylbenzyl)phenyl)-8-(hydroxymethyl)spiro[2.5]octane-5,6,7-triol]
IC50 (human SGLT2): < 1 µM
IC50 (human SGLT1): 1 to 10 µM

SMILES: OC[C@@H]1[C@@H](O)[C@H](O)[C@@H](O)[C@H](c2ccc(Cl)c(Cc3ccc(C4CCCCC4)cc3)c2)[C@H]1O [Compound 12, (1R,2R,3S,4R,5R,6S)-4-(4-chloro-3-(4-cyclohexylbenzyl)phenyl)-6-(hydroxymethyl)cyclohexane-1,2,3,5-tetraol]
IC50 (human SGLT2): < 1 µM
IC50 (human SGLT1): > 10 µM

SMILES: OC[C@H]1C=C(c2ccc(Cl)c(Cc3ccc(OCC#CC4CC4)cc3)c2)[C@H](O)[C@@H](O)[C@@H]1O [Compound 13, (1R,2S,3S,6R)-4-(4-chloro-3-(4-(3-cyclopropylprop-2-ynyloxy)benzyl)phenyl)-6-(hydroxymethyl)cyclohex-4-ene-1,2,3-triol]
IC50 (human SGLT2): < 1 µM
IC50 (human SGLT1): > 10 µM

SMILES: CCc1ccc(Cc2cc([C@H]3[C@H](O)[C@@H](O)[C@H](O)[C@@H](COC(C)=O)[C@@H]3O)ccc2Cl)cc1 [Compound 17, ((1S,2R,3R,4S,5R,6R)-3-(4-chloro-3-(4-ethylbenzyl)phenyl)-2,4,5,6-tetrahydroxycyclohexyl)methyl acetate]
IC50 (human SGLT2): < 1 µM
IC50 (human SGLT1): 1 to 10 µM

SMILES: CCc1ccc(Cc2ccccc2O[C@H]2[C@H](O)[C@@H](O)[C@H](O)[C@@H](CO)[C@@H]2O)cc1 [Compound 30, (1R,2S,3R,4R,5S,6R)-4-(2-(4-ethylbenzyl)phenoxy)-6-(hydroxymethyl)cyclohexane-1,2,3,5-tetraol]
IC50 (human SGLT2): < 1 µM
IC50 (human SGLT1): > 10 µM

Results, then the molecule that gave them:

IC50 (human SGLT2): < 1 µM
IC50 (human SGLT1): 1 to 10 µM
SMILES: CCOc1ccc(Cc2cc([C@H]3[C@H](O)[C@@H](O)[C@H](O)[C@@H](CO)[C@@H]3O)ccc2Cl)cc1 [Compound 9, (1R,2R,3S,4R,5R,6S)-4-(4-chloro-3-(4-ethoxybenzyl)phenyl)-6-(hydroxymethyl)cyclohexane-1,2,3,5-tetraol]

IC50 (human SGLT2): < 1 µM
IC50 (human SGLT1): < 1 µM
SMILES: CCc1ccc(Cc2cc([C@H]3[C@H](O)[C@@H](O)[C@H](O)[C@@H](CO)[C@@H]3O)ccc2Cl)cc1 [5 (R = Et), (1R,2R,3S,4R,5R,6S)-4-(4-chloro-3-(4-ethylbenzyl)phenyl)-6-(hydroxymethyl)cyclohexane-1,2,3,5-tetraol]

IC50 (human SGLT2): < 1 µM
IC50 (human SGLT1): < 1 µM
SMILES: OC[C@@H]1[C@@H](O)[C@H](O)[C@@H](O)[C@H](c2ccc(Cl)c(Cc3ccc(C4CC4)cc3)c2)[C@H]1O [Compound 10, (1R,2R,3S,4R,5R,6S)-4-(4-chloro-3-(4-cyclopropylbenzyl)phenyl)-6-(hydroxymethyl)cyclohexane-1,2,3,5-tetraol]

IC50 (human SGLT2): < 1 µM
IC50 (human SGLT1): 1 to 10 µM
SMILES: CCCc1ccc(Cc2cc([C@H]3[C@H](O)[C@@H](O)[C@H](O)[C@@H](CO)[C@@H]3O)ccc2Cl)cc1 [Compound 11, (1R,2R,3S,4R,5R,6S)-4-(4-chloro-3-(4-propylbenzyl)phenyl)-6-(hydroxymethyl)cyclohexane-1,2,3,5-tetraol]

IC50 (human SGLT2): < 1 µM
IC50 (human SGLT1): 1 to 10 µM
SMILES: CC(O)c1ccc(Cc2cc([C@H]3[C@H](O)[C@@H](O)[C@H](O)[C@@H](CO)[C@@H]3O)ccc2Cl)cc1 (stereo partly drawn) [Compound 40, (1R,2R,3S,4R,5R,6S)-4-(4-chloro-3-(4-(1-hydroxyethyl)benzyl)phenyl)-6-(hydroxymethyl)cyclohexane-1,2,3,5-tetraol]

IC50 (human SGLT2): < 1 µM
IC50 (human SGLT1): 1 to 10 µM
SMILES: CC(=O)c1ccc(Cc2cc([C@H]3[C@H](O)[C@@H](O)[C@H](O)[C@@H](CO)[C@@H]3O)ccc2Cl)cc1 [Compound 39, 1-(4-(2-chloro-5-((1R,2S,3R,4R,5S,6R)-2,3,4,6-tetrahydroxy-5-(hydroxymethyl)cyclohexyl)benzyl)phenyl)ethanone]
